Assay results: patent US11821903B2, “Sensor” (The University of Bristol, priority 2017, dated 2023)

Experiment: Binding of reporter dye prodan to the lumen of alpha helical barrels (fluorescence titration)
Details: dissociation constant of prodan (1 μM) with alpha helical barrel 0.5-500 μM, up to 2 hours, fluorescent signal
Procedure: The dyes 1,6-diphenyl-1,3,5-hexatriene (DPH) and 6-propionyl-2-dimethylaminonaphthalene (prodan) were assayed against a number of alpha helical barrels to determine their dissociation constants, KD. DPH or prodan (1 μM) was incubated with varying concentrations of alpha helical barrel (0.5-500 μM) for up to 2 hours, and the fluorescent signal measured at the corresponding emission wavelength.

| Kd [µM] | Prodan KD | Sequence |
| --- | --- | --- |
| > 500 | did not bind | GKIEQILQKIEKILQKIEWILQKIEQILQG [CC-Pent, forms alpha helical barrel with 5 helices] |
| > 500 | did not bind | GELKAIAQELKAIAKELKAIAWELKAIAQG [CC-Hex, forms alpha helical barrel with 6 helices] |
